Values joined by “and” are separate entries in the source; they are usually repeats but may differ in a detail not shown here. Equal entries are not always repeated. Active and inactive are the calls of the source.
Experiments:
[1] = target: Alkaline phosphatase, placental type (Homo sapiens, UniProt P05187); test: PLAP enzyme inhibitors, confirmation, biochemical, luminescence (AID 1512); format: functional
[2] = target: T1, Alkaline phosphatase, tissue-nonspecific isozyme (Homo sapiens, UniProt P05186); test: human TNAP enzyme inhibitors, SAR follow-up, biochemical, luminescent, dose response (AID 1056)
T1 sequence (P05186 whole entry): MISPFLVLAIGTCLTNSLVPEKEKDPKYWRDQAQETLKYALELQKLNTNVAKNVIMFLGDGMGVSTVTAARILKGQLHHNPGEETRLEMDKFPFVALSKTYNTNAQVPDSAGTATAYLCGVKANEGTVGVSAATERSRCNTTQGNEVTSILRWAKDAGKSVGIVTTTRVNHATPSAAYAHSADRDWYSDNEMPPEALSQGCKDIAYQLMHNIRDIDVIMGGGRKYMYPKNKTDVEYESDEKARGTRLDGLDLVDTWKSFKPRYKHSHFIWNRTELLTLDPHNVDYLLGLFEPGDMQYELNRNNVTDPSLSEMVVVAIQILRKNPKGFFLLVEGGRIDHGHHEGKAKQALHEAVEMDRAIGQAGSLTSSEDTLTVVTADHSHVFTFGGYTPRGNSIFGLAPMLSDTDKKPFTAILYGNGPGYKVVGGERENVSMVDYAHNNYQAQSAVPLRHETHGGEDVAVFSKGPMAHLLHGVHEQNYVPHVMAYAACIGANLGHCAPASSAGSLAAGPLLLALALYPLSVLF

[3] = target: T2, Runt-related transcription factor 1/Core-binding factor subunit beta (Homo sapiens, UniProt Q01196+Q13951); test: inhibitors of RUNX1 Runt–CBFb-SMMHC binding, primary screen, biochemical, FRET, Cerulean-Runt, Venus-CBFb-SMMHC, uHTS (AID 1434); format: protein assay;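 further: partner is the CBFb-SMMHC leukemia fusion protein rather than wild-type CBFb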
[4] = target: T2, Runt-related transcription factor 1/Core-binding factor subunit beta; test: inhibitors of RUNX1 Runt–CBFb-SMMHC binding, biochemical, TR-FRET (AID 1438); format: protein assay
[5] = target: DNA dC->dU-editing enzyme APOBEC-3A (Homo sapiens, UniProt P31941); test: Dose Response confirmation of small molecule APOBEC3A DNA Deaminase Inhibitors via a fluorescence-based single-stranded DNA deaminase assay. [Related pubchem assays (depositor defined):AID493011, AID493024]; format: functional
[6] = target: DNA dC->dU-editing enzyme APOBEC-3G (Homo sapiens, UniProt Q9HC16); format: functional;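 further: Dose-response counterscreen measuring inhibition of APOBEC3G DNA deaminase activity, run while confirming APOBEC3A inhibitors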
[7] = microbe, parasite or virus in culture; format: functional; details: Mycobacterium tuberculosis
[8] = THP-1 cell cytotoxicity, dose response, cytotoxicity control for non-replicating M. tuberculosis project (AID 489025); format: functional
[9] = HepG2 cell cytotoxicity, dose response, cytotoxicity control for non-replicating M. tuberculosis project (AID 489018); format: functional; details: Mycobacterium tuberculosis
[10] = Vero E6 cell cytotoxicity, dose response, cytotoxicity control for non-replicating M. tuberculosis project, secondary assay (AID 492998); format: functional, VeroE6; details: Vero C1008
cells = format: functional
[11] = target: T3, Mannose-6-phosphate isomerase (Homo sapiens, UniProt P34949); test: human PMI inhibitors, high substrate, primary screen, biochemical, fluorescence intensity, high mannose 6-phosphate (AID 1220)
T3 sequence (P34949 whole entry): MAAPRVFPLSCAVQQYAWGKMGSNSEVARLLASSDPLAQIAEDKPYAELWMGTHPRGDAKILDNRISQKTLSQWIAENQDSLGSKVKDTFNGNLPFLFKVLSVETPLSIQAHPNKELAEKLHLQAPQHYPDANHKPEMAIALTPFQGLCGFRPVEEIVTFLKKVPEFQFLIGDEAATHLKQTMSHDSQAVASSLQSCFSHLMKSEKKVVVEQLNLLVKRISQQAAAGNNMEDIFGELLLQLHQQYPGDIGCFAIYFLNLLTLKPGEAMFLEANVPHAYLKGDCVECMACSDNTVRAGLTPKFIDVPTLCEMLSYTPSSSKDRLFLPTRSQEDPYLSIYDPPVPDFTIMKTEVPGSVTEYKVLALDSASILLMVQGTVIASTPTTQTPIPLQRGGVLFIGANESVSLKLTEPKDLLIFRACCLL

[12] = target: 1-acylglycerol-3-phosphate O-acyltransferase ABHD5/Perilipin-5 (Homo sapiens, UniProt Q00G26+Q8WTS1); test: Luminescence-based biochemical high throughput dose response assay for inhibitors of the interaction of the lipase co-activator protein, abhydrolase domain containing 5 (ABHD5) with perilipin-5 (MLDP; PLIN5) (2K validation set). [Related pubchem assays (depositor defined):AID493035, AID493241]
Perilipin-1/ABHD5 = Perilipin-1/ABHD5 (Homo sapiens, UniProt O60240+Q8WTS1); test: Luminescence-based biochemical high throughput dose response assay for inhibitors of the interaction of the lipase co-activator protein, abhydrolase domain containing 5 (ABHD5) with perilipin-1 (PLIN1) (2K validation set). [Related pubchem assays (depositor defined):AID493027, AID493057]
Genome polyprotein = Genome polyprotein (dengue virus type 2, UniProt P29990); test: Dengue-2 NS5 methyltransferase inhibitors, primary screen, biochemical, confirmation dose response (AID 588689); format: functional
[13] = target: T4, Polyadenylate-binding protein 1 (Homo sapiens, UniProt P11940); test: PABP1 MLLE–PAM2 interaction inhibitors, dose response, miRNA deadenylation inhibitor project, biochemical, fluorescence polarization, Cy5-PAM2 peptide, secondary (AID 602260); format: functional; details: read-out: IC50_Mean
[14] = target: T4, Polyadenylate-binding protein 1; test: PABP1 MLLE–PAM2 binding inhibitor potency, dose response, biochemical, fluorescence polarization, FITC-PAM2 peptide (AID 602259); format: functional; details: read-out: IC50_Mean
[15] = target: Type-1 angiotensin II receptor (Homo sapiens, UniProt P30556); test: AT1 receptor agonists, dose response, selectivity assay for APJ receptor agonist project, cell-based, uHTS hits (AID 488865); format: functional;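 further: beta-arrestin recruitment to AT1 measured by enzyme fragment complementation luminescence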
[16] = target: Low molecular weight phosphotyrosine protein phosphatase (Homo sapiens, UniProt P24666); format: functional; details: read-out: IC50_Mean;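 further: Dose-response confirmation assay measuring inhibition of LMPTP enzyme activity by fluorescence intensity read-out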
Mu-type opioid receptor = Mu-type opioid receptor (Homo sapiens, UniProt P35372); test: SAR Analysis of Antagonists of the MOR Receptor using an Image-Based Assay - Set 3. [Related pubchem assays (depositor defined):AID1777, AID1785, AID1786, AID1966, AID2133, AID2136, AID2284, AID2285, AID2420]; format: functional
[17] = target: Delta-type opioid receptor (Homo sapiens, UniProt P41143); test: SAR Analysis of Antagonists of the DOR Receptor using an Image-Based Assay - Set 3. [Related pubchem assays (depositor defined):AID1777, AID1785]; format: functional;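 further: U2OS cells expressing DOR1 and beta-arrestin GFP stimulated with 100 nM SNC80; imaging of GFP-tagged beta-arrestin moving into spots after receptor activation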
[18] = target: T5, Kappa-type opioid receptor (Homo sapiens, UniProt P41145); test: SAR analysis of small molecule antagonists of the kappa opioid receptor via a luminescent beta-arrestin assay - Set 3. [Related pubchem assays (depositor defined):AID1777, AID1778, AID1785, AID1786, AID1966, AID2133, AID2136, AID2285, AID2495]; format: functional
[19] = target: T5, Kappa-type opioid receptor; test: SAR analysis of Antagonists of the Kappa Opioid Receptor (KOR) using an Image-Based Assay - Set 3. [Related pubchem assays (depositor defined):AID1777, AID1785]; format: functional

T4 sequence (P11940 whole entry): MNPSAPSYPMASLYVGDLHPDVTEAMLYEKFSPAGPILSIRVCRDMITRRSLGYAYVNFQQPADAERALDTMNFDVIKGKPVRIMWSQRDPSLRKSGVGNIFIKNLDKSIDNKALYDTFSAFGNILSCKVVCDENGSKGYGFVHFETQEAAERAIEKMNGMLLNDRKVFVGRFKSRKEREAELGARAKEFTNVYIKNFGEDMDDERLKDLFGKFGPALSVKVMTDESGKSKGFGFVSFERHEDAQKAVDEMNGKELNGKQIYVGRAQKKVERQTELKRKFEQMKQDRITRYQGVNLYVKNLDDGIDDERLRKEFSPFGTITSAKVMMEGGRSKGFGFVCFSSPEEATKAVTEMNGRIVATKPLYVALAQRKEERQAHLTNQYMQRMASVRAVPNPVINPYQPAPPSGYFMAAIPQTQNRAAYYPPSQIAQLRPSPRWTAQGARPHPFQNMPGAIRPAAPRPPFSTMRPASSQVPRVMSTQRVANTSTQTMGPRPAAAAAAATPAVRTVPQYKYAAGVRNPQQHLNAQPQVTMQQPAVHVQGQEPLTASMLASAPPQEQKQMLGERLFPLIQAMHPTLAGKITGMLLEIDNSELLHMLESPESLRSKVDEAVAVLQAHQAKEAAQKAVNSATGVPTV
T5 sequence (P41145 whole entry): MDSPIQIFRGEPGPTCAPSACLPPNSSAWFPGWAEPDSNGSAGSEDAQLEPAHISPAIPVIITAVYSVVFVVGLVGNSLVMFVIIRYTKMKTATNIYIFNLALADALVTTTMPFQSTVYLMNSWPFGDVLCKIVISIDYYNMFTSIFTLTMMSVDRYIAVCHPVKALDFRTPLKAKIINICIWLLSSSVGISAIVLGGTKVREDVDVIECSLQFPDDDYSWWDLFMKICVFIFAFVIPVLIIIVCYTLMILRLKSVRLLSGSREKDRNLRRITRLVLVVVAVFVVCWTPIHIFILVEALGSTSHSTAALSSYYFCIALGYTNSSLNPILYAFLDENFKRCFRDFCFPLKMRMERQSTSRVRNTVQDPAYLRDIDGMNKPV
T2 sequence (Q01196 whole entry, the tested form may be a part): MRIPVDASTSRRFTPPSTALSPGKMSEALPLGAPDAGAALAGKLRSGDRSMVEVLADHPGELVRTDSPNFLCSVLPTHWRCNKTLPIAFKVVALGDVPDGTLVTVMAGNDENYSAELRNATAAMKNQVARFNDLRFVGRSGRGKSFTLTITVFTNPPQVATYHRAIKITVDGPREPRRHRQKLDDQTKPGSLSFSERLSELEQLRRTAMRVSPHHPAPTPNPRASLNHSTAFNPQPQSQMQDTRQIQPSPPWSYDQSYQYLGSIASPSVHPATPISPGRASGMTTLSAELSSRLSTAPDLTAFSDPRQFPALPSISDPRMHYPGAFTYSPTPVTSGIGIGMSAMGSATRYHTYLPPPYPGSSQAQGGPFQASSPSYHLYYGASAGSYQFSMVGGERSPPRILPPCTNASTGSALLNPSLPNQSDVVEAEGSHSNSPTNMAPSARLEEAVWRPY
T2 sequence (Q13951 whole entry, the tested form may be a part): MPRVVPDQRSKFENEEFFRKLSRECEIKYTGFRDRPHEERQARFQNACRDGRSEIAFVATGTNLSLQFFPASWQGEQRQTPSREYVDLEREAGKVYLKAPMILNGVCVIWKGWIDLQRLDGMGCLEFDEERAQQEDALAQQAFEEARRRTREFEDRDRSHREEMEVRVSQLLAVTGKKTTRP
DNA dC->dU-editing enzyme APOBEC-3G, sequence (Q9HC16 whole entry): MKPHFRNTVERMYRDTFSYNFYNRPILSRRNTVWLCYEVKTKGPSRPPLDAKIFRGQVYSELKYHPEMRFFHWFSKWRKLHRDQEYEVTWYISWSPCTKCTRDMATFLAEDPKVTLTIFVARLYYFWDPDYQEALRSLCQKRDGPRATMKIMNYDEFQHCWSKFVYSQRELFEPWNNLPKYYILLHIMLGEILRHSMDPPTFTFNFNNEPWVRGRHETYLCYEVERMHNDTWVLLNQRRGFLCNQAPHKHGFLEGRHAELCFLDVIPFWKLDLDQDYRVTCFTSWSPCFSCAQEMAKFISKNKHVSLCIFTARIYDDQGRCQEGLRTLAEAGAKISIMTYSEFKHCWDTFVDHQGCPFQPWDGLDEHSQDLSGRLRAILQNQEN
Type-1 angiotensin II receptor, sequence (P30556 whole entry, the tested form may be a part): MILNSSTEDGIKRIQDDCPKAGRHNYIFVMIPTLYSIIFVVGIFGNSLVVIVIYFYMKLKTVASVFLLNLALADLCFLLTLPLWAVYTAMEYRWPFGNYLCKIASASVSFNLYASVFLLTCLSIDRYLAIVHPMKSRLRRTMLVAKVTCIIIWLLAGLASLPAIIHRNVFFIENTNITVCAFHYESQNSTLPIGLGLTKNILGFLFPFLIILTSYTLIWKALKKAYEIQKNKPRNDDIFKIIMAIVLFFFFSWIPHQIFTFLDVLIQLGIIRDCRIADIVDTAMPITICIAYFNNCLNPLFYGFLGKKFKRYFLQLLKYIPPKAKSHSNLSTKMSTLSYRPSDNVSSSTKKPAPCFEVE
Low molecular weight phosphotyrosine protein phosphatase, sequence (P24666 whole entry): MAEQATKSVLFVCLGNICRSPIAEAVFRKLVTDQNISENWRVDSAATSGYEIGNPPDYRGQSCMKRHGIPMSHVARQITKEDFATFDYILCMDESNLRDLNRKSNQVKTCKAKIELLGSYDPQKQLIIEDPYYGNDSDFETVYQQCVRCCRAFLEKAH
DNA dC->dU-editing enzyme APOBEC-3A, sequence (P31941 whole entry): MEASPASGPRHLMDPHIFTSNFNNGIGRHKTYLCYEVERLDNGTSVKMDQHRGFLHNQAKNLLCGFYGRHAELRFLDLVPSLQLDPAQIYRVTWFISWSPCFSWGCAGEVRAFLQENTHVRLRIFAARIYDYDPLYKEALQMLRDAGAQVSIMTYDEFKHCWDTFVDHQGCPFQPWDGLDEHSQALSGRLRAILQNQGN
Mu-type opioid receptor, sequence (P35372 whole entry): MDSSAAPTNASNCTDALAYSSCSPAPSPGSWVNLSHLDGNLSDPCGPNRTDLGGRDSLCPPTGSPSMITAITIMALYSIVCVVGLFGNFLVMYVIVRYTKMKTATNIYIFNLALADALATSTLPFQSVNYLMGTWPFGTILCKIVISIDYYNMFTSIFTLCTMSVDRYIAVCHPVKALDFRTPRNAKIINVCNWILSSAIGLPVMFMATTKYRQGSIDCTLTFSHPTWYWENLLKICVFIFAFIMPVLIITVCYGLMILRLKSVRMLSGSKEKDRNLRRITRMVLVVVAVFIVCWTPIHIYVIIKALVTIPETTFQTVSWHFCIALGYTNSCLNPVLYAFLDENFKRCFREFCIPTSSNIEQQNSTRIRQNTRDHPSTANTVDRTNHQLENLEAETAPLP
Perilipin-1/ABHD5, sequence (Q8WTS1 whole entry, the tested form may be a part): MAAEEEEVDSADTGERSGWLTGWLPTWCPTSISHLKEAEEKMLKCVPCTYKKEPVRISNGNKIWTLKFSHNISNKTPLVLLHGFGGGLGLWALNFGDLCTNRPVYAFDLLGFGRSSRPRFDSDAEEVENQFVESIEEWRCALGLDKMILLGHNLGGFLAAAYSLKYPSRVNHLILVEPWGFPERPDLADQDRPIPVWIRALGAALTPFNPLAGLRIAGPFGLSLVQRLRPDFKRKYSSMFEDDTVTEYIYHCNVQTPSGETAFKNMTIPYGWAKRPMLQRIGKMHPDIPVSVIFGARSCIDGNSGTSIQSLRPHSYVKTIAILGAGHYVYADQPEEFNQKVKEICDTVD
Perilipin-1/ABHD5, sequence (O60240 whole entry, the tested form may be a part): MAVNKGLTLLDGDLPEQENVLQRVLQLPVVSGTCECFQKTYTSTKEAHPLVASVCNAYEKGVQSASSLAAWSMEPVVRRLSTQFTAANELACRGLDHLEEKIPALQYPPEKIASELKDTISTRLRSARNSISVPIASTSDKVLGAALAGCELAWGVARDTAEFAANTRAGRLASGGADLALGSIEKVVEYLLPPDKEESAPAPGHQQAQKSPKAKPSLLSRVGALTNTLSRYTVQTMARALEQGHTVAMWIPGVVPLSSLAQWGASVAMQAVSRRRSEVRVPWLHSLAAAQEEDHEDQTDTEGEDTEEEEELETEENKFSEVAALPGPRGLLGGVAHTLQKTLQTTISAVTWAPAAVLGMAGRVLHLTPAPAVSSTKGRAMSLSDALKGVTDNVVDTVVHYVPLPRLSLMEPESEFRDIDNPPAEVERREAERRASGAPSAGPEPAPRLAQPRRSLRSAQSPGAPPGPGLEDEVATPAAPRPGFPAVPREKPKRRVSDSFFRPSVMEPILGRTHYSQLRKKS
1-acylglycerol-3-phosphate O-acyltransferase ABHD5/Perilipin-5, sequence (Q00G26 whole entry, the tested form may be a part): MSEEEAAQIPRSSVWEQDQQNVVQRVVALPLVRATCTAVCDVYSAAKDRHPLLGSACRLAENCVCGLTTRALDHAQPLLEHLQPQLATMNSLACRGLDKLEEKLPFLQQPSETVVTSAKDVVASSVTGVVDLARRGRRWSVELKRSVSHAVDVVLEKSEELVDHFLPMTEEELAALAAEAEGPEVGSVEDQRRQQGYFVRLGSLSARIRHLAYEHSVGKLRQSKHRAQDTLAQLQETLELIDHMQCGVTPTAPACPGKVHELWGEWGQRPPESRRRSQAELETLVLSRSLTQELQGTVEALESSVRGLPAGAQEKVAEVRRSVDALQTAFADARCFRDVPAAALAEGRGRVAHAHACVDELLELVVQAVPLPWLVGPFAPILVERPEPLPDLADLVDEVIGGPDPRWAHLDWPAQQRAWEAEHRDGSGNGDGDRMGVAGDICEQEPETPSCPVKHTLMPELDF
1-acylglycerol-3-phosphate O-acyltransferase ABHD5/Perilipin-5, sequence (Q8WTS1 whole entry, the tested form may be a part): as the sequence (Q8WTS1 whole entry, the tested form may be a part) above

Q: With `COC(=O)c1cc(-c2c[nH]c3ccccc23)[nH]n1` as the compound, how does the IC50 [1] read?
A: The IC50 was > 100 µM (inactive).

Q: And the IC50 [2]?
A: Its IC50 is 1.67 µM (active) and 906 nM (active).

Q: What does the source list for `Cc1cc(C)cc(Oc2nc3c(C)cccn3c(=O)c2/C=C(\C#N)C(=O)NC2CCS(=O)(=O)C2)c1` (stereo not drawn)?
A: IC50 [3]: 4.95 µM (active); IC50 [4]: 68 µM (inactive)

Q: Which IC50 [5] does the source give for `Cc1nc(O)c(C#N)c(C)c1CCC(=O)Nc1cc(S(C)(=O)=O)ccc1Cl` here?
A: The IC50 was 9.97 µM (active).

Q: What about the IC50 [6] of the same compound?
A: Its IC50 is 11.7 µM (active).

Q: With `COc1cccc(-c2nnc(NC(=O)c3ccc(S(=O)(=O)N4CCOCC4)cc3)o2)c1` as the compound, how does the CC50 [7] read?
A: Its CC50 is 19.7 µM (active).

Q: And the CC50 [8]?
A: The CC50 was 8.51 µM (active).

Q: What about the CC50 [9] of the same compound?
A: Its CC50 is 13.9 µM (active).

Q: And the CC50 [10]?
A: Its CC50 is 7.2 µM (active).

Q: And the IC50 (cells)?
A: Its IC50 is 22.8 µM (active).

Q: What does the source list for `COc1cc(/C=C2\C(=O)NC(=O)N(c3ccccc3)C2=O)c([N+](=O)[O-])cc1OC`?
A: IC50 [11]: > 50 µM (not active); IC50 [12]: 3.41 µM (active); IC50 (Perilipin-1/ABHD5): 3.29 µM (active); IC50 (Genome polyprotein): 17.3 µM (active); IC50 [13]: 53.9 µM (inactive); IC50 [14]: 42.8 µM (inactive)

Q: With `COc1cc2c(cc1NC(=O)c1cccc([N+](=O)[O-])c1)oc1ccccc12` as the compound, how does the EC50 [15] read?
A: Its EC50 is > 100 µM (inactive).

Q: What about the IC50 [16] of the same compound?
A: The IC50 was 14.2 µM (active).

Q: For `O=C(Cn1c(=O)c2cccn2c2ccc(F)cc21)NCCCN1CCN(c2ccc(F)cc2)CC1`, which IC50 (Mu-type opioid receptor) is on record?
A: Its IC50 is > 32 µM (inactive).

Q: And the IC50 [17]?
A: The IC50 was > 32 µM (inactive).

Q: And the IC50 [18]?
A: Its IC50 is > 20 µM (inactive).

Q: What about the IC50 [19] of the same compound?
A: The IC50 was 14.6 µM (inactive).
